Laboratory results from ChEMBL document CHEMBL6087395, “NGT: Generative AI with Synthesizability Guarantees Discovers MC2R Inhibitors from a Tera-Scale Virtual Screen” (J Med Chem, 2024).

Assays:
Melanocortin receptor 3 = Melanocortin receptor 3 (Homo sapiens, UniProt P41968); experiment: Antagonist activity at human MC3 receptor expressed in HEK293 cells assessed as inhibition of ACTH-induced cAMP accumulation measured after 70 mins incubation by fluorescence analysis; format: functional, cell-based
Sequence of Melanocortin receptor 3 (P41968 whole entry): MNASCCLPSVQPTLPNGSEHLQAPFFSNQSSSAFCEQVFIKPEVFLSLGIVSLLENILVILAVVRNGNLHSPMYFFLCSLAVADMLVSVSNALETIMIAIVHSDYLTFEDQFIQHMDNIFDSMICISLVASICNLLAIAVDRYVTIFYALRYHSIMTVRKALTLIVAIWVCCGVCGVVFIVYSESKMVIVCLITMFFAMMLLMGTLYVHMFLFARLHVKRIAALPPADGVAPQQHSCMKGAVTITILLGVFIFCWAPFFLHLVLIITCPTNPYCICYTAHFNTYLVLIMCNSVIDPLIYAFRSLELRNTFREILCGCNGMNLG

Melanocortin receptor 5 = Melanocortin receptor 5 (Homo sapiens, UniProt P33032); experiment: Antagonist activity at human MC5 receptor expressed in HEK293 cells assessed as inhibition of ACTH-induced cAMP accumulation measured after 70 mins incubation by fluorescence analysis; format: functional, cell-based
Sequence of Melanocortin receptor 5 (P33032 whole entry): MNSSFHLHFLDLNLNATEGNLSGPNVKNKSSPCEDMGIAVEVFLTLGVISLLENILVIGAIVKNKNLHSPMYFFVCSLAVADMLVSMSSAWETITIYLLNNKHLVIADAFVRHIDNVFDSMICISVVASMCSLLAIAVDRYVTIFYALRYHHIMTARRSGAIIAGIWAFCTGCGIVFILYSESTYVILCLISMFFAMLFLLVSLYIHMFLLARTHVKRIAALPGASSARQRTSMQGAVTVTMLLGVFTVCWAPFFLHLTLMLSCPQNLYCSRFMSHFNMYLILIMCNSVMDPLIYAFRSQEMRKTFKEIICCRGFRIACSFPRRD

[1] = Antagonist activity at human MC2 receptor expressed in HEK293 cells assessed as inhibition of ACTH-induced cAMP accumulation measured after 70 mins incubation by fluorescence analysis; conditions: HEK293, 70 min
Melanocortin receptor 4 = Melanocortin receptor 4 (Homo sapiens, UniProt P32245); experiment: Antagonist activity at human MC4 receptor expressed in HEK293 cells assessed as inhibition of ACTH-induced cAMP accumulation measured after 70 mins incubation by fluorescence analysis; format: functional, cell-based
Sequence of Melanocortin receptor 4 (P32245 whole entry): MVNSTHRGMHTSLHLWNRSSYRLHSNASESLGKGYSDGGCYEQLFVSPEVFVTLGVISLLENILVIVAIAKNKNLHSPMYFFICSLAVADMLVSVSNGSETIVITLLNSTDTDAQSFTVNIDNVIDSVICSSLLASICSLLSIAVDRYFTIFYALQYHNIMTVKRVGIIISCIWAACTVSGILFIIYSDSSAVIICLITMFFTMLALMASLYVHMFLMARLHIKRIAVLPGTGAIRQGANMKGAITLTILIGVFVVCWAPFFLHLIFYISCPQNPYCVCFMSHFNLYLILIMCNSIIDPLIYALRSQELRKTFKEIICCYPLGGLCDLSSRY

In the case of `CCCN1CC(NC(=O)[C@@H]2C[C@H]2c2cccc(-c3cc(Cl)ccc3OC)c2Cl)C1`, the EC50 (Melanocortin receptor 3) is reported as 19 µM.

Compound `Cc1ccc(-c2cc(Cl)cs2)cc1C1(C(=O)NC2CN(C3CCC3)C2)CC1` has an EC50 (Melanocortin receptor 5) of 16 µM.

`O=C(NCC(F)F)C(C1CC2(C1)CC21CCC1)N(C(=O)c1cc2c(cn1)CCCC2)[C@H]1C[C@@H](N2CCCC2)C1` (stereo not given in full) showed an EC50 (Melanocortin receptor 5) of 102 µM, an EC50 (Melanocortin receptor 3) of 50 µM and an EC50 [1] of 38 µM. The EC50 (Melanocortin receptor 4) was 36 µM.

With `CCc1ccc(-c2cc(CNC3CCN(c4ccccc4C(N)=O)C3)c(OC)cc2F)s1` (stereo not given) the EC50 (Melanocortin receptor 3) was 33 µM.

`CC1CC(N2CCCC2)CN1C(=O)c1cc(O)cc(-c2cc(Cl)ccc2F)c1` (stereo not given) gave an EC50 (Melanocortin receptor 5) of 154 µM, an EC50 (Melanocortin receptor 3) of 94 µM and an EC50 [1] of 6.7 µM. The EC50 (Melanocortin receptor 4) was 425 µM.

`COc1ccc(C(CN(C)C)NC(=O)COc2ccc(-c3cccc4c3OCC4)cc2Cl)cc1` (stereo not given) gave an EC50 (Melanocortin receptor 5) of 13 µM, an EC50 (Melanocortin receptor 3) of 37 µM and an EC50 [1] of 4.1 µM. The EC50 (Melanocortin receptor 4) was 31 µM.

In the case of `O=C1NCCOc2ccc(CNCC3(c4ccc(C=C5CCSCC5)s4)CCC3)cc21`, the EC50 (Melanocortin receptor 5) is reported as 31 µM, the EC50 (Melanocortin receptor 3) is reported as 33 µM and the EC50 [1] is reported as 11 µM. The EC50 (Melanocortin receptor 4) was 32 µM.

With `COCCNC(=O)C(C1CC2(C1)CC21CCC1)N(C(=O)c1cn(C)cn1)C1CCCN(c2cccc(C)c2)C1` (stereo not given) the EC50 (Melanocortin receptor 5) was 72 µM, the EC50 (Melanocortin receptor 3) was 32 µM and the EC50 [1] was 7 µM. For the same compound, the EC50 (Melanocortin receptor 4) was 33 µM.

In the case of `COc1cc(C)c(-c2c(C)c(C)c(C(=O)NCC3CCCN3CCCO)c(C)c2C)cc1C` (stereo not given), the EC50 (Melanocortin receptor 5) is reported as 150 µM and the EC50 (Melanocortin receptor 3) is reported as 156 µM.
